Reference: the supplement of paper PMC10627819
Values after ≈ are worked out from the molar mass of the structure shown.

Tests used:
[1] = test system: S. aureus DSM 20231; experiment: fitness (endpoint OD595 vs no drug) (fraction); higher = more growth
Summary of the method: (§1)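 Fitness compares growth at the stationary-phase transition with the robust mean of no-drug control wells, as a ratio of optical densities. The ratio is capped at 1. Wells of 384-well plates held 30 µl, or 55 µl for S. pneumoniae, inoculated at OD595 0.01. Readings at OD595 every 30 min for 14 h at 37 °C were corrected against the first reading.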

[2] = test system: B. subtilis 168; experiment: as above
Summary of the method: as §1

[3] = test system: S. pneumoniae D39V; experiment: as above
Summary of the method: as §1

[4] = test system: S. aureus Newman; experiment: as above
Summary of the method: as §1

[5] = test system: S. aureus DSM 20231; experiment: Bliss interaction score (quartile over a dose matrix) (fitness difference); higher = more antagonism (negative = synergy)
Summary of the method: (§2)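 OD595 was read at entry into stationary phase and expressed relative to the robust mean of the no-drug wells on the same plate, capped at 1. The resulting ratio is the fitness value. The Bliss score, observed fitness minus product-based expected fitness with single-drug fitness inferred from combinations, is summarised by quartiles over technical, biological and donor/recipient replicates.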

[6] = test system: B. subtilis 168; experiment: as above
Summary of the method: as §2

[7] = test system: S. pneumoniae D39V; experiment: as above
Summary of the method: as §2

[8] = test system: S. aureus Newman; experiment: as above
Summary of the method: as §2

[9] = test system: S. aureus DSM 20231
[10] = test system: S. pneumoniae D39V
[11] = test system: B. subtilis 168
[12] = test system: S. aureus Newman
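Wherever Bliss interaction score (quartile over a dose matrix) is given: first quartile when negative (synergy) and third quartile when positive (antagonism).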

CCCCCCCCCC(=O)N[C@@H](Cc1c[nH]c2ccccc12)C(=O)N[C@H](CC(N)=O)C(=O)N[C@@H](CC(=O)O)C(=O)N[C@@H]1C(=O)NCC(=O)N[C@@H](CCCN)C(=O)N[C@@H](CC(=O)O)C(=O)N[C@H](C)C(=O)N[C@@H](CC(=O)O)C(=O)NCC(=O)N[C@H](CO)C(=O)N[C@@H]([C@H](C)CC(=O)O)C(=O)N[C@@H](CC(=O)c2ccccc2N)C(=O)O[C@@H]1C [Daptomycin] + O=C(O[C@@H]1Cc2c(O)cc(O)cc2O[C@@H]1c1cc(O)c(O)c(O)c1)c1cc(O)c(O)c(O)c1 [EGCG]
fitness
Settings	partner 6.25 µg/mL	partner 12.5 µg/mL	partner 25 µg/mL	partner 50 µg/mL
[1], first compound 0.5 µg/mL	–	0.814	0.778	0.808
[1], first compound 1 µg/mL	–	0.788	0.721	0.699
[1], first compound 2 µg/mL	–	0.728	0.736	–
[2], first compound 0.125 µg/mL	0.906	–	0.305	–
[2], first compound 0.25 µg/mL	0.895	0.719	–	–
[2], first compound 0.5 µg/mL	0.838	0.598	–	–
[3], first compound 1 µg/mL	–	0.909	0.95	–
[3], first compound 2 µg/mL	–	0.921	0.906	0.971
[3], first compound 4 µg/mL	–	–	–	0.832
[4], first compound 0.125 µg/mL	–	0.817	0.79	0.742
[4], first compound 0.25 µg/mL	–	0.828	0.815	0.754
[4], first compound 0.5 µg/mL	–	0.861	0.843	0.742

[2], first compound 1 µg/mL, one replicate
Settings	fitness
partner 6.25 µg/mL	0.665
partner 12.5 µg/mL	0.399
partner 25 µg/mL	0.0311

Settings	Bliss interaction score
[5]	-0.0959
[6]	-0.0882
[7]	0.0768
[8]	0.0602

C[C@H]1COc2c(N3CCN(C)CC3)c(F)cc3c(=O)c(C(=O)O)cn1c23 [Levofloxacin]
Settings	MIC [µg/mL]
[9]	0.15 (≈ 0.415 µM)
[10]	2 (≈ 5.53 µM)

fitness
Settings	0.002 µg/mL	0.0039 µg/mL	0.0078 µg/mL	0.0312 µg/mL	0.0625 µg/mL	0.125 µg/mL	0.2 µg/mL	0.4 µg/mL	0.8 µg/mL
[2]	0.932	0.928	0.916	0.0401	0.0424	0.0419	–	–	–
[3]	–	–	–	–	–	–	0.931	0.789	0.468

CN(C)C(=O)C(CCN1CCC(O)(c2ccc(Cl)cc2)CC1)(c1ccccc1)c1ccccc1 [Loperamide]
Settings	MIC [µg/mL]
[9]	120 (≈ 252 µM)
[10]	200 (≈ 419 µM)
[11]	100 (≈ 210 µM)
[12]	120 (≈ 252 µM)

fitness
Settings	20 µg/mL	25 µg/mL	40 µg/mL	50 µg/mL	80 µg/mL	100 µg/mL
[1]	–	≥ 1	–	0.925	–	0.0918
[2]	–	0.651	–	0.254	–	0.03
[3]	≥ 1	–	≥ 1	–	0.869	–

CCN(CC)CCOC(=O)c1ccc(N)cc1 [Procaine]
Settings	MIC [µg/mL]
[9]	> 342
[10]	> 342
[11]	> 342
[12]	> 342

fitness
Settings	[1]	[2]	[3]	[4]
85.5 µg/mL	0.999	0.922	0.995	0.982
171 µg/mL	0.998	0.918	≥ 1	0.972
342 µg/mL	0.999	0.91	0.977	0.95

CCN(CC)CCOC(=O)c1ccc(N)cc1 [Procaine] + CC1=C\[C@@H](O)CC(=O)Cc2nc(co2)C(=O)N2CCC=C2C(=O)O[C@H](C(C)C)[C@H](C)/C=C/C(=O)NC\C=C\1 [Virginiamycin M1]
fitness
Settings	first compound 85.5 µg/mL	first compound 171 µg/mL	first compound 342 µg/mL
[1], partner 0.0625 µg/mL	–	0.976	0.872
[1], partner 0.125 µg/mL	–	≥ 1	≥ 1
[1], partner 0.25 µg/mL	0.94	0.906	0.878
[2], partner 0.0625 µg/mL	0.957	0.962	0.904
[2], partner 0.125 µg/mL	0.88	0.92	0.881
[2], partner 0.25 µg/mL	0.905	0.892	0.882
[3], partner 0.5 µg/mL	≥ 1	≥ 1	≥ 1
[3], partner 1 µg/mL	≥ 1	≥ 1	≥ 1
[3], partner 2 µg/mL	0.948	0.926	0.951

fitness, one replicate
Settings	first compound 85.5 µg/mL	first compound 171 µg/mL	first compound 342 µg/mL
[1], partner 0.5 µg/mL	0.82	0.747	0.842
[1], partner 1 µg/mL	0.726	0.774	0.779
[3], partner 0.15 µg/mL	0.976	0.936	0.971
[3], partner 0.3 µg/mL	0.983	0.941	0.934
[4], partner 0.0625 µg/mL	≥ 1	≥ 1	≥ 1
[4], partner 0.125 µg/mL	≥ 1	≥ 1	≥ 1
[4], partner 0.25 µg/mL	≥ 1	≥ 1	≥ 1
[4], partner 0.5 µg/mL	0.851	0.766	0.795
[4], partner 1 µg/mL	0.977	≥ 1	0.968
[4], partner 2 µg/mL	0.913	0.91	0.812

Settings	Bliss interaction score
[5]	-0.0838
[6]	-0.0324
[7]	0.036
[8]	0.0179
